Test results as given in patent publication US9750747B2, “Treatments involving eslicarbazepine acetate or eslicarbazepine” (BAIL-PORTELA & CA, S.A., priority 2011, dated 2017).
“Also recorded” adds a separate entry of the source. Like-named read-outs stand apart in the source and are kept apart here. Each block holds one compound with its values, some of them ahead of it.

Columns and labels:
α1β2γ2 GABA receptors = molecular target: T1, α1β2γ2 GABA receptors (Homo sapiens, UniProt P14867+P18507+P47870); test: whole-cell patch-clamp, sub-maximal GABA inward currents in stably transfected Ltk cells; format: cell-based
T1 construct: host or cells: Ltk cells, expression induced with dexamethasone
T1 sequence (P14867 28-456): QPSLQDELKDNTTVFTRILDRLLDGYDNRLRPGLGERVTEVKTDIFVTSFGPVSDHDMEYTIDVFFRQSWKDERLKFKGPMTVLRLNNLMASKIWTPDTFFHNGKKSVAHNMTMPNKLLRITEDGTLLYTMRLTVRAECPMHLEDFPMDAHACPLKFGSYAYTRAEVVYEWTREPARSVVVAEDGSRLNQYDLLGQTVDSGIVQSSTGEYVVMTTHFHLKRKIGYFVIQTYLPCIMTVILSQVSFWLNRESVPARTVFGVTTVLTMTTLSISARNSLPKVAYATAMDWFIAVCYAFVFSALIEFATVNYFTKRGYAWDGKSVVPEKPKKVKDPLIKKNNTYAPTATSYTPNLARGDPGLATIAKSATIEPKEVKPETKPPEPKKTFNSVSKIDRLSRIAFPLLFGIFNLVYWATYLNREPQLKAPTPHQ
T1 sequence (P47870 25-512 limits assumed): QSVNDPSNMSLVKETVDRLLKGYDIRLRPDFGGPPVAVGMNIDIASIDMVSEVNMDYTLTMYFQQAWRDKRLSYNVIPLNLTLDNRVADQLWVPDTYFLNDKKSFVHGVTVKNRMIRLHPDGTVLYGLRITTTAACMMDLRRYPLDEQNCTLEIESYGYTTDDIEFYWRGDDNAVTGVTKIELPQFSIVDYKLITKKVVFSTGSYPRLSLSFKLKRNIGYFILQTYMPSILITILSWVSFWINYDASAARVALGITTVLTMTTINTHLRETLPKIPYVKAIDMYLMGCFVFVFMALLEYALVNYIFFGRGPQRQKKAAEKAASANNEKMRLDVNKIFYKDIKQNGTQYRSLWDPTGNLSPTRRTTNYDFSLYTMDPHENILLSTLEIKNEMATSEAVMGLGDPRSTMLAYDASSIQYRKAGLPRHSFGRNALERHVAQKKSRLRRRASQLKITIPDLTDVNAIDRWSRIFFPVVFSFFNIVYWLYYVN
T1 sequence (P18507 40-475): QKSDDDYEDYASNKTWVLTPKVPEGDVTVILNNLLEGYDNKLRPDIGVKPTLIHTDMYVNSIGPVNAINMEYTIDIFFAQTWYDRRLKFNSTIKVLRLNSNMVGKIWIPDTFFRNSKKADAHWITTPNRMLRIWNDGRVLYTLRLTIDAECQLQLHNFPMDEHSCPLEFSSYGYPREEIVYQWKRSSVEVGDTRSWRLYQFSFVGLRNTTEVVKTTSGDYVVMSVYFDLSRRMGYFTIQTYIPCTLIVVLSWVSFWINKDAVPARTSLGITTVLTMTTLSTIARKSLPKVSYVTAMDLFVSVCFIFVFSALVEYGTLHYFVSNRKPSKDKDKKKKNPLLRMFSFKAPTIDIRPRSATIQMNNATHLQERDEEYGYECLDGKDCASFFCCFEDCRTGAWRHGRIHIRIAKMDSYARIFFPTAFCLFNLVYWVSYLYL
Experimental: (§1) Carbamazepine (CBZ) aggravates absence seizures in ‘generalized absence epilepsy rats from. Strasbourg’. One putative mechanism for the aggravation is through its reported potentiation of GABAA currents. A study was carried out to determine the effect of eslicarbazepine, R-licarbazepine and carbamazepine on sub-maximal GABA currents in Ltk cells stably expressing α1β2γ2, α2β2γ2, α3β2γ2 or α5β2γ2 GABA-receptors. The whole-cell patch-clamp technique was used to investigate the effects of the test compounds on GABAA receptors.
(§2) Used Ltk cells were stably transfected with recombinant GABAA cDNAs: α1β2γ2, α2β2γ2, α3β2γ2 or α5β2γ2 (B'SYS GmbH, Switzerland). […] For the electrophysiological experiments cells were cultivated, at a density that enabled single cells to be measured, in medium without antibiotics or antimycotics. Cells were tested 24-48 hours following induction of transgene expression with dexamethasone.
(§3) The whole-cell patch clamp recordings from transfected Ltk cells (voltage-clamped at a holding potential of −80 mV) were made using a EPC-7, HEKA Electronics amplifier. GABA inward-currents were measured upon application of 1 or 2 μM GABA to patch-clamped cells (at an EC5).
(§4) Analysis of Variance (ANOVA) with post test multisample comparison (Dunnett) was conducted with GraphPad Prism 4 Software.

α2β2γ2 GABA receptors = molecular target: T2, α2β2γ2 GABA receptors (Homo sapiens, UniProt P18507+P47869+P47870); test: as above; format: cell-based
T2 construct: host or cells: Ltk cells, expression induced with dexamethasone
T2 sequence (P47869 29-451): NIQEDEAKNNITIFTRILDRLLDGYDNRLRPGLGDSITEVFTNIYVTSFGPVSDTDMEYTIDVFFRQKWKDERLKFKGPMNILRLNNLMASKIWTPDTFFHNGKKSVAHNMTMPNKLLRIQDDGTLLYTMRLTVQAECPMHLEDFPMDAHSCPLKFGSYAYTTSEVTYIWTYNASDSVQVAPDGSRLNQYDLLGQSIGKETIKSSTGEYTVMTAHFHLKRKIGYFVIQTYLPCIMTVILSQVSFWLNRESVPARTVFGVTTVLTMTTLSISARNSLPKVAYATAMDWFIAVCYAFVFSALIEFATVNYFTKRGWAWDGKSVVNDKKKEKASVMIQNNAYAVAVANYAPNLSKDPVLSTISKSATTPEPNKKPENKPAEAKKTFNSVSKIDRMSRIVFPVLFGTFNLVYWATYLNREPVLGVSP
T2 sequence (P47870 25-512 limits assumed): as the sequence (P47870 25-512 limits assumed) above
T2 sequence (P18507 40-475): as the sequence (P18507 40-475) above
Experimental: as §1, §2, §3, §4

α3β2γ2 GABA receptors = molecular target: T3, α3β2γ2 GABA receptors (Homo sapiens, UniProt P18507+P34903+P47870); test: as above; format: cell-based
T3 construct: host or cells: Ltk cells, expression induced with dexamethasone
T3 sequence (P34903 29-492): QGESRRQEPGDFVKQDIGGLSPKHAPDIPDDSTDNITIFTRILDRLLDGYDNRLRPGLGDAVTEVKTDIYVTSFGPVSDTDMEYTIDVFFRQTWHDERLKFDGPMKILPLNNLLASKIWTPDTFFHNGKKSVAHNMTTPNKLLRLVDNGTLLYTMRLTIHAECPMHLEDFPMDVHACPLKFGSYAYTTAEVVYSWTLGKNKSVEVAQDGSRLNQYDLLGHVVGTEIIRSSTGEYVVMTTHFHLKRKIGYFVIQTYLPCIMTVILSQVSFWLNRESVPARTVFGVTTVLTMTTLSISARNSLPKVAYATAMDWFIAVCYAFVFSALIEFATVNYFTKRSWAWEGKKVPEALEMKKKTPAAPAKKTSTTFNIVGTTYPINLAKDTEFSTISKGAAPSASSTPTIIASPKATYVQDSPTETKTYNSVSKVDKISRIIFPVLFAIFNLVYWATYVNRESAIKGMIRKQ
T3 sequence (P47870 25-512 limits assumed): as the sequence (P47870 25-512 limits assumed) above
T3 sequence (P18507 40-475): as the sequence (P18507 40-475) above
Experimental: as §1, §2, §3, §4

α5β2γ2 GABA receptors = molecular target: T4, α5β2γ2 GABA receptors (Homo sapiens, UniProt P18507+P31644+P47870); test: as above; format: cell-based
T4 construct: host or cells: Ltk cells, expression induced with dexamethasone
Experimental: as §1, §2, §3, §4

[1] = molecular target: T5, human T-type calcium channels hCav3.2 (Homo sapiens, UniProt O95180); test: whole-cell patch-clamp, calcium peak currents in stably transfected HEK 293 cells; format: cell-based; design: blocked calcium peak currents by: unit not given here; conditions: for Relative current amplitude (%): hCav3.2 in HEK 293 cells; for IC50: two site binding model
T5 construct: expressed in transfected cells; host or cells: HEK 293 cells (European Collection of Animal Cell Culture)
T5 sequence (O95180 whole entry): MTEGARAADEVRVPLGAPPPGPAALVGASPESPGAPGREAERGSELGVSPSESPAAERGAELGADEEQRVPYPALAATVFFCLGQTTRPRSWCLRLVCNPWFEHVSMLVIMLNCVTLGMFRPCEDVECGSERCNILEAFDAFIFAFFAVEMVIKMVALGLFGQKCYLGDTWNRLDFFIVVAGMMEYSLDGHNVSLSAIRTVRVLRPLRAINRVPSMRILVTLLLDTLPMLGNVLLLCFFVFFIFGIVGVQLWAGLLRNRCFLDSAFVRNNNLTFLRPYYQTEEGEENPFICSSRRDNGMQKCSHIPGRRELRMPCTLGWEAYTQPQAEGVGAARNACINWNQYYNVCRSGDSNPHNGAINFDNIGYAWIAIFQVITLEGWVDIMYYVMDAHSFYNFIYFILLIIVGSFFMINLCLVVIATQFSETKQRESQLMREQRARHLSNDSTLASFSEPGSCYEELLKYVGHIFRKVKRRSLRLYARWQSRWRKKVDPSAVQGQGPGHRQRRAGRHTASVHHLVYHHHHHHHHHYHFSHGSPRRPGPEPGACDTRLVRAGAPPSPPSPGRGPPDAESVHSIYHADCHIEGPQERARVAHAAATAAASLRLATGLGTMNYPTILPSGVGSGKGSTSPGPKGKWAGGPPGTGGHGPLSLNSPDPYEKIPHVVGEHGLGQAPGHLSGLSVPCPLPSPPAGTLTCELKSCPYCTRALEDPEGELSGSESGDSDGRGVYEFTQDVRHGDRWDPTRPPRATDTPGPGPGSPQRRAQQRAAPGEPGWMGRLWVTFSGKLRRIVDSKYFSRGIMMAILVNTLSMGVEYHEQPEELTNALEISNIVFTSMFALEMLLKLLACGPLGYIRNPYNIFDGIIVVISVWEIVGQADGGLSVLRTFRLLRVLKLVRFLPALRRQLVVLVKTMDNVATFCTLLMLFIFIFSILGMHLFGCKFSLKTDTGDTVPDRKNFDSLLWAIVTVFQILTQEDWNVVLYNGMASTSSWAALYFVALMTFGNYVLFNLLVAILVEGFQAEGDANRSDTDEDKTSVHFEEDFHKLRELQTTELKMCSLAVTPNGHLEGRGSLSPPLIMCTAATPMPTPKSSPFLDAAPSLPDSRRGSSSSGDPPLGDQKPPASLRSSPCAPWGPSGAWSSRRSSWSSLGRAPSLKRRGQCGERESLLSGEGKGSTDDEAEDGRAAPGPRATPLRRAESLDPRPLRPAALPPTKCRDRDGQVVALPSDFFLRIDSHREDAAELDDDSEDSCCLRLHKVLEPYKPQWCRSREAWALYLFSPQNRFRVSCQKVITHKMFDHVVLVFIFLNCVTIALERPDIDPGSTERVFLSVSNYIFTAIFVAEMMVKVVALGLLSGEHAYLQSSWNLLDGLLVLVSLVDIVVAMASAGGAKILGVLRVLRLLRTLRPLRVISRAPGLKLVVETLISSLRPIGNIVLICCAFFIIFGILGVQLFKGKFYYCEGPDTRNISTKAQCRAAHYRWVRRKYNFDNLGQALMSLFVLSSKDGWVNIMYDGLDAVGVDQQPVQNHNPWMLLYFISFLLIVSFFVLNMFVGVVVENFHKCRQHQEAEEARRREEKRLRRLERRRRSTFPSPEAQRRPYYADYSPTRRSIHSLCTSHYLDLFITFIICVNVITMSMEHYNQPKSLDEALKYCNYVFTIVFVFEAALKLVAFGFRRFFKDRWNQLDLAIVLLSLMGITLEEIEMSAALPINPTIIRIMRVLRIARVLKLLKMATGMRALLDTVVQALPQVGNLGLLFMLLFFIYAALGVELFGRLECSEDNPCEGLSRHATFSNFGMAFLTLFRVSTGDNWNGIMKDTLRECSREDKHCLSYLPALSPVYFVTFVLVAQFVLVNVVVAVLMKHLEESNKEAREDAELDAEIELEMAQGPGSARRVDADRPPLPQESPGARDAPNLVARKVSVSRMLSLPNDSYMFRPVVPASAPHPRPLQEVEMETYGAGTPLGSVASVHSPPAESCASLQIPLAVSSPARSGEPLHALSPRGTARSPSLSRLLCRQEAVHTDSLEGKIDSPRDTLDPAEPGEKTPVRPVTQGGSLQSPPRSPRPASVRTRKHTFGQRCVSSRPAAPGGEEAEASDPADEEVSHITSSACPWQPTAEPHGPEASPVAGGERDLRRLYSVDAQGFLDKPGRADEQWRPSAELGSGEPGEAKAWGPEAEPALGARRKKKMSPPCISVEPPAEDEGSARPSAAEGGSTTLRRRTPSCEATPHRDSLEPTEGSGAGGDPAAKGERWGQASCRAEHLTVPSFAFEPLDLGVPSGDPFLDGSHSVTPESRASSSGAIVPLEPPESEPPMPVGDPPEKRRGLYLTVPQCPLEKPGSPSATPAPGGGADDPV
Experimental: A study was carried out to determine the effect of eslicarbazepine.
Cells were stably transfected with hCav3.2 cDNA.
Calcium inward currents were measured upon depolarization of the cell membrane to −25 mV for 50 ms from a holding potential of −80 mV. This voltage protocol was run at intervals of 10 s until stabilization of evoked hCav3.2 currents. […] Vehicle was either bath solution or 0.2% DMSO.
Analysis of variance (ANOVA) with post test multisample comparison (Dunnett) was conducted with GraphPad Prism 4 Software. IC50 were calculated with the equation: […]

[2] = test system: α1β2γ2, α2β2γ2, α3β2γ2 or α5β2γ2 GABA-receptors; test: overall effect on sub-maximal GABA currents (summary of Example 1); format: cell-based; conditions: Ltk cells, all four receptor subtypes
Experimental: as §1
Used Ltk cells were stably transfected with recombinant GABAA cDNAs: α1β2γ2, α2β2γ2, α3β2γ2 or α5β2γ2 (B'SYS GmbH, Switzerland). Cells were maintained in a humidified atmosphere (95% relative humidity) with 5% CO2 and were grown in D-MEM/F-12 (1×, liquid, with GlutaMax 1) supplemented with 9% foetal bovine serum and 0.9% Penicillin/Streptomycin solution (Gibco BRL). For the electrophysiological experiments cells were cultivated, at a density that enabled single cells to be measured, in medium without antibiotics or antimycotics. Cells were tested 24-48 hours following induction of transgene expression with dexamethasone.
Cells were continuously perfused with bath solution (NaCl 137 mM, KCl 4 mM, CaCl2 1.8 mM, MgCl2 1 mM, D-Glucose 10 mM HEPES 10 mM, pH 7.4). […] GABA inward-currents were measured upon application of 1 or 2 μM GABA to patch-clamped cells (at an EC5). […]

absence seizure = test: mouse absence seizure models (γ-butyrolactone induced, SSADH null, stargazer, C3H/He); format: in vivo; conditions: mice models (a)-(d)
[3] = 50 μM with GABA at EC5, Ltk cells, Table 2
[4] = 100 μM with GABA at EC5, Ltk cells, Table 2
[5] = 250 μM with GABA at EC5, Ltk cells, Table 2
[6] = 500 μM with GABA at EC5, Ltk cells, Table 2
[7] = 1000 μM with GABA at EC5, Ltk cells, Table 2
[8] = high affinity fit, read-out: hCav3.2 IC50 (μM) High affinity
[9] = low affinity fit, read-out: hCav3.2 IC50 (μM) Low affinity
[10] = 50 μM with GABA at EC5, Ltk cells, Table 1
[11] = 100 μM with GABA at EC5, Ltk cells, Table 1
[12] = 250 μM with GABA at EC5, Ltk cells, Table 1
[13] = 500 μM with GABA at EC5, Ltk cells, Table 1

SMILES: NC(=O)N1c2ccccc2C=Cc2ccccc21 [Carbamazepine, 5H-dibenzo[b,f]azepine-5-carboxamide]
Current stimulation (%) α1β2γ2 (α1β2γ2 GABA receptors; [3]): 104.30 ± 5.02%
Current stimulation (%) α1β2γ2 (α1β2γ2 GABA receptors; [4]): 117.38 ± 4.94%
Current stimulation (%) α1β2γ2 (α1β2γ2 GABA receptors; [5]): 115.68 ± 5.31%
Current stimulation (%) α1β2γ2 (α1β2γ2 GABA receptors; [6]): 132.42 ± 5.31 %
Current stimulation (%) α1β2γ2 (α1β2γ2 GABA receptors; [7]): 150.26 ± 15.48 %
Current stimulation (%) α2β2γ2 (α2β2γ2 GABA receptors; [3]): 97.94 ± 3.34%
Current stimulation (%) α2β2γ2 (α2β2γ2 GABA receptors; [4]): 111.36 ± 2.65%
Current stimulation (%) α2β2γ2 (α2β2γ2 GABA receptors; [5]): 109.03 ± 7.61%
Current stimulation (%) α2β2γ2 (α2β2γ2 GABA receptors; [6]): 103.60 ± 7.61%
Current stimulation (%) α2β2γ2 (α2β2γ2 GABA receptors; [7]): 104.18 ± 2.66%
Current stimulation (%) α3β2γ2 (α3β2γ2 GABA receptors; [3]): 93.32 ± 4.07%
Current stimulation (%) α3β2γ2 (α3β2γ2 GABA receptors; [4]): 112.76 ± 5.40%
Current stimulation (%) α3β2γ2 (α3β2γ2 GABA receptors; [5]): 131.06 ± 9.39%
Current stimulation (%) α3β2γ2 (α3β2γ2 GABA receptors; [6]): 120.27 ± 11.81%
Current stimulation (%) α3β2γ2 (α3β2γ2 GABA receptors; [7]): 166.66 ± 21.00 %
Current stimulation (%) α5β2γ2 (α5β2γ2 GABA receptors; [3]): 103.82 ± 1.50%
Current stimulation (%) α5β2γ2 (α5β2γ2 GABA receptors; [4]): 103.83 ± 4.53%
Current stimulation (%) α5β2γ2 (α5β2γ2 GABA receptors; [5]): 93.59 ± 4.30%
Current stimulation (%) α5β2γ2 (α5β2γ2 GABA receptors; [6]): 80.65 ± 5.86%
Current stimulation (%) α5β2γ2 (α5β2γ2 GABA receptors; [7]): 63.01 ± 4.50 %
effect on hCav3.2 calcium peak currents (in words) [1]: dose dependently inhibited
Relative current amplitude (%) ([1]; 25 μM): 87.58 ± 2.94%
Relative current amplitude (%) ([1]; 50 μM): 76.53 ± 5.48%
Relative current amplitude (%) ([1]; 100 μM): 69.98 ± 4.47%
Relative current amplitude (%) ([1]; 250 μM): 59.47 ± 6.06 %
Relative current amplitude (%) ([1]; 500 μM): 45.66 ± 7.45 %
IC50 [1, 8]: 27.1 µM
IC50 [1, 9]: 711 µM

blocked calcium peak currents by ([1]; 1 mM, n=8 cells): 66.15±2.05
SMILES: CCCC(CCC)C(=O)O [valproic acid]

SMILES: NC(=O)N1c2ccccc2C[C@H](O)c2ccccc21 [Eslicarbazepine, (S)-10-hydroxy-10,11-dihydro-5H-dibenz[b,f]azepine-5-carboxamide]
Current stimulation (%) α1β2γ2 (α1β2γ2 GABA receptors; [10]): 103.3 ± 1.96%
Current stimulation (%) α1β2γ2 (α1β2γ2 GABA receptors; [11]): 95.92 ± 0.83%
Current stimulation (%) α1β2γ2 (α1β2γ2 GABA receptors; [12]): 97.82 ± 1.13%
Current stimulation (%) α1β2γ2 (α1β2γ2 GABA receptors; [13]): 99.39 ± 0.80%
Current stimulation (%) α2β2γ2 (α2β2γ2 GABA receptors; [10]): 91.58 ± 2.69%
Current stimulation (%) α2β2γ2 (α2β2γ2 GABA receptors; [11]): 97.04 ± 2.65%
Current stimulation (%) α2β2γ2 (α2β2γ2 GABA receptors; [12]): 88.56 ± 3.24 %
Current stimulation (%) α2β2γ2 (α2β2γ2 GABA receptors; [13]): 89.80 ± 4.01%
Current stimulation (%) α3β2γ2 (α3β2γ2 GABA receptors; [10]): 95.61 ± 4.75%
Current stimulation (%) α3β2γ2 (α3β2γ2 GABA receptors; [11]): 97.93 ± 4.22%
Current stimulation (%) α3β2γ2 (α3β2γ2 GABA receptors; [12]): 96.44 ± 2.16%
Current stimulation (%) α3β2γ2 (α3β2γ2 GABA receptors; [13]): 91.63 ± 5.56%
Current stimulation (%) α5β2γ2 (α5β2γ2 GABA receptors; [10]): 95.18 ± 2.18%
Current stimulation (%) α5β2γ2 (α5β2γ2 GABA receptors; [11]): 93.89 ± 0.60%
Current stimulation (%) α5β2γ2 (α5β2γ2 GABA receptors; [12]): 93.52 ± 1.75%
Current stimulation (%) α5β2γ2 (α5β2γ2 GABA receptors; [13]): 89.65 ± 3.44%
effect on hCav3.2 calcium peak currents (in words) [1]: dose dependently inhibited; also recorded: effectively inhibits high and low affinity hCav3.2 inward currents
Relative current amplitude (%) ([1]; 0.3 μM): 86.99 ± 1.56 %
Relative current amplitude (%) ([1]; 1 μM): 81.61 ± 1.31 %
Relative current amplitude (%) ([1]; 3 μM): 76.21 ± 1.61 %
Relative current amplitude (%) ([1]; 10 μM): 71.22 ± 2.40 %
Relative current amplitude (%) ([1]; 30 μM): 73.04 ± 1.64 %
Relative current amplitude (%) ([1]; 50 μM): 61.44 ± 4.96 %
Relative current amplitude (%) ([1]; 100 μM): 54.68 ± 6.35 %
Relative current amplitude (%) ([1]; 250 μM): 46.92 ± 6.64 %
Relative current amplitude (%) ([1]; 500 μM): 51.83 ± 4.77 %
Relative current amplitude (%) ([1]; 1000 μM): 45.48 ± 4.94 %
IC50 [1, 8]: 0.43 µM
IC50 [1, 9]: 62.6 µM
effects upon sub-maximal GABA currents (in words) [2]: devoid of effects
controlling seizures in mouse absence seizure models (absence seizure): effective in controlling seizures
